Assay results: ChEMBL document CHEMBL4428125, “8-Substituted 1,3-dimethyltetrahydropyrazino[2,1-f]purinediones: Water-soluble adenosine receptor antagonists and monoamine oxidase B inhibitors” (Bioorg Med Chem, 2016)
Active and inactive are the calls of the source. The rule behind the calls is not given here.

Legend:
[1] = target: T1, Adenosine receptor A1 (Homo sapiens) (UniProt P30542); assay: Displacement of [3H]CCPA from human A1 receptor expressed in CHO cell membrane at 10 uM by liquid scintillation counting method; format: cell membranes
T1 sequence (whole entry): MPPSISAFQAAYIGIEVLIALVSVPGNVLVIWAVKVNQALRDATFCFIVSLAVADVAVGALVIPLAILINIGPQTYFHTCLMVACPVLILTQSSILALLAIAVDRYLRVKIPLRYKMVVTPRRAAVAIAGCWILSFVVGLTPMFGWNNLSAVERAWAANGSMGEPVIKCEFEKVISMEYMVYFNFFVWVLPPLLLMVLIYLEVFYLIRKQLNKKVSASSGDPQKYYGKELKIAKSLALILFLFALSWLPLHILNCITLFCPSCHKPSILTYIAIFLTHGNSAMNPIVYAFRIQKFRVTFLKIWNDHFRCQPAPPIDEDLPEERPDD

[2] = target: T2, Adenosine receptor A3 (Homo sapiens) (UniProt P0DMS8); assay: Displacement of [3H]PSB-11 from human A3 receptor expressed in CHO cell membrane at 10 uM by liquid scintillation counting method relative to control relative to control; format: cell membranes
T2 sequence (whole entry): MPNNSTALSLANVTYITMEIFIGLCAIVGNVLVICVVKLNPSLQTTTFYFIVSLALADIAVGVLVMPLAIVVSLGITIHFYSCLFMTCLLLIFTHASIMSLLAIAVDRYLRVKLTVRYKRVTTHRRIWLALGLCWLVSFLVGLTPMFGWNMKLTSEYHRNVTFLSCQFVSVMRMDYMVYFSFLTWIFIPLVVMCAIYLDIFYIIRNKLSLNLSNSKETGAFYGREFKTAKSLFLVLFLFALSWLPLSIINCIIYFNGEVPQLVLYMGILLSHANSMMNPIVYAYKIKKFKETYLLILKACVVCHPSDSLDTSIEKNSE

[3] = target: T3, Amine oxidase [flavin-containing] B (Homo sapiens, UniProt P27338); assay: Inhibition of recombinant human MAO-B expressed in baculovirus infected BTI insect cells preincubated for 30 mins followed by addition of p-tyramine as substrate measured over 45 mins by Amplex Red MAO assay
T3 sequence (P27338 whole entry): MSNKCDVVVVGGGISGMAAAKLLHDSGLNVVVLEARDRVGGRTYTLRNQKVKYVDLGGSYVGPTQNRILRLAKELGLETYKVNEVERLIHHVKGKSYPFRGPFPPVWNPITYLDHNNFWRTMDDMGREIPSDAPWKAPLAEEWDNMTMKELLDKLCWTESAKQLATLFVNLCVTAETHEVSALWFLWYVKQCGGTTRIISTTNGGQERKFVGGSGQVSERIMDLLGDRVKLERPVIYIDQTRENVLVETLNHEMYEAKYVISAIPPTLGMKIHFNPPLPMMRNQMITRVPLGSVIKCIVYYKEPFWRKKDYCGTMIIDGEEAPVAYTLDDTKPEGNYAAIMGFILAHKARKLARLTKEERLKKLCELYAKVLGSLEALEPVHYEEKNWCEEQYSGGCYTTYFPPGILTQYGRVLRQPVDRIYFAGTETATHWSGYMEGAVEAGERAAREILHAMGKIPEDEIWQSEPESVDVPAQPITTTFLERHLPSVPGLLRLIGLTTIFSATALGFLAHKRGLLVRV

[4] = target: T4, Adenosine receptor A2b (Homo sapiens) (UniProt P29275); assay: Displacement of [3H]PSB-603 from human A2B receptor expressed in CHO cell membrane at 1 uM relative to control; format: cell membranes
T4 sequence (whole entry): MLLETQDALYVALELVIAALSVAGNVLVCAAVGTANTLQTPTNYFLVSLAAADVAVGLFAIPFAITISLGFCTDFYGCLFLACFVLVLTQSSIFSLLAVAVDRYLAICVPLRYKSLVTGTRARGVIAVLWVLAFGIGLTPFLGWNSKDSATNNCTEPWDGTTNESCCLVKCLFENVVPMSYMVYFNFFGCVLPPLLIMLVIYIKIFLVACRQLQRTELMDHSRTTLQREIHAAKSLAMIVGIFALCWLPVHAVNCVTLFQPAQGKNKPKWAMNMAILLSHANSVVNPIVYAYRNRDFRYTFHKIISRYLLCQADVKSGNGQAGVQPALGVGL

[5] = target: T5, Adenosine receptor A1 (Rattus norvegicus) (UniProt P25099); assay: Displacement of [3H]CCPA from A1 receptor in rat brain cortex membranes at 1.5 uM by liquid scintillation counting method; format: cell membranes
T5 sequence (whole entry): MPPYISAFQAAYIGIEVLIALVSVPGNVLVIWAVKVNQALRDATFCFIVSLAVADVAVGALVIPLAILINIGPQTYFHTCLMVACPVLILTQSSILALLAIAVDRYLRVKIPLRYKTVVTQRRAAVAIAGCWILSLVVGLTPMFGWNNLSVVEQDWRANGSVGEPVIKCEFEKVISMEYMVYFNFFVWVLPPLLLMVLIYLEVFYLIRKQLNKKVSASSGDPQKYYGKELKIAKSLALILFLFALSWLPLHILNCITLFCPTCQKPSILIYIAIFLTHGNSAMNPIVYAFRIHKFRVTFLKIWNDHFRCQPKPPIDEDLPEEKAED

Adenosine receptor A2a [6] = target: T6, Adenosine receptor A2a (Homo sapiens, UniProt P29274); assay: Agonist activity at recombinant human A2A receptor expressed in CHO cells assessed as increase in forskolin-induced cAMP level at 1 uM preincubated for 20 mins prior to forskolin-stimulation measure after 5 mins by liquid scintillation counting method; format: functional, cell-based
Adenosine receptor A1 = target: T7, Adenosine receptor A1 (Rattus norvegicus, UniProt P25099); assay: Displacement of [3H]CCPA from A1 receptor in rat brain cortex membranes by liquid scintillation counting method; format: cell membranes
T7 sequence (P25099 whole entry): T5 sequence (whole entry)

[7] = target: T4, Adenosine receptor A2b (Homo sapiens); assay: Displacement of [3H]PSB-603 from human A2B receptor expressed in CHO cell membrane at 0.3 uM relative to control; format: cell membranes
[8] = target: T1, Adenosine receptor A1 (Homo sapiens); assay: Agonist activity at recombinant human A1 receptor expressed in CHO cells assessed as inhibition of forskolin-induced cAMP accumulation at 10 uM preincubated for 20 mins prior to forskolin-stimulation measure after 5 mins by liquid scintillation counting method; format: functional, cell-based
[9] = target: T1, Adenosine receptor A1 (Homo sapiens); assay: Agonist activity at recombinant human A1 receptor expressed in CHO cells assessed as inhibition of forskolin-induced cAMP accumulation at 1 uM preincubated for 20 mins prior to forskolin-stimulation measure after 5 mins by liquid scintillation counting method; format: functional, cell-based
Adenosine receptor A2a [10] = target: T6, Adenosine receptor A2a; assay: Agonist activity at recombinant human A2A receptor expressed in CHO cells assessed as increase in forskolin-induced cAMP level at 10 uM preincubated for 20 mins prior to forskolin-stimulation measure after 5 mins by liquid scintillation counting method; format: functional, cell-based

T6 sequence (P29274 whole entry): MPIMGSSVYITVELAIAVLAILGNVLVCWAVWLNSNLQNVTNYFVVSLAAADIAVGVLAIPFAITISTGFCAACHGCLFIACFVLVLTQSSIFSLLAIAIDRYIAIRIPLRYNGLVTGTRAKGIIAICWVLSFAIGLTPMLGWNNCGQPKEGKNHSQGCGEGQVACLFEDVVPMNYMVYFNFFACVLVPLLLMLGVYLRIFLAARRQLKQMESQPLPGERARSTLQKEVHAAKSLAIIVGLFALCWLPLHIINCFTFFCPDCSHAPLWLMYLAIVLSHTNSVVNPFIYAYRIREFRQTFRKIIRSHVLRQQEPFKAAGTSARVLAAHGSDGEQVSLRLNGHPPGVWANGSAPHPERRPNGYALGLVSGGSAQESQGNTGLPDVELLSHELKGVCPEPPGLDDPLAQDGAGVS

Activity [1]	Activity [2]	IC50 [3]	Activity [4]	Activity [5]	Activity (Adenosine receptor A2a [6])	Ki (Adenosine receptor A1)	Activity [7]	Activity [8]	Activity [9]	Activity (Adenosine receptor A2a [10])	SMILES
37%	20%	385 nM	23%	37%	–	–	–	–	–	–	Cn1c(=O)c2c(nc3n2CCN(c2cccc(Cl)c2)C3)n(C)c1=O
–	–	210 nM	–	–	inactive	100 nM	1%	inactive	inactive	inactive	Cn1c(=O)c2c(nc3n2CCN([C@@H]2CCCc4ccccc42)C3)n(C)c1=O
